Test results reported in patent publication US20200215085A1, “Method to Abate Acute Airway Hypersensitivity and Asthma Attacks” (UTI Limited Partnership, priority 2017, published 2020).
“Also recorded” adds a separate entry of the source.

Tests used:
[1] = system: carotid body; test: en bloc perfused carotid body preparation: carotid sinus nerve response to LPA; set-up: species or system Sprague-Dawley rats; details: for reduction of 5 μM LPA-mediated carotid sinus nerve excitation: 5 μM LPA (18:1), AMG9810 10 μM, BrP-LPA 1.5 μM, Ki16425 5 μM, mean±sem; for effect of LPAr blockade on carotid sinus nerve response to LPA (5 μM): BrP-LPA 1.5 μM or Ki16425 5 μM, FIGS. 2A-2B; for en bloc carotid body's response to LPA blocked: en bloc preparation
[2] = system: OVA-sensitized rats; test: bradykinin-induced bronchoconstriction (RL, Flexivent) in anesthetized ovalbumin-sensitized rats; type: in vivo, Brown Norway rats; details: nebulized 0.4 mg bradykinin at 1, 10, 20 min, antagonists iv (BrP-LPA 3 mg/kg, Ki16425 5 mg/kg, AMG9810 10 μM/kg)
Protocol: In order to examine the involvement of LPA-induced carotid body activity on airway resistance in response to bradykinin nebulization, alfaxan-anesthetized animals and the Flexivent system were used. These experiments were performed with a number of acute interventions affecting the proposed pathway, including vagotomy, carotid body denervation, and TRPV1 and/or LPA receptor blockade. Prior to bradykinin, these interventions had no effect on airway resistance (Holm-S̆idák post hoc test comparing asthma control vs any manipulation group: p>0.06) and as expected, bradykinin had no effect on non-asthmatic lungs (p>0.3). However, the acute bronchoconstriction induced by bradykinin in asthmatic lungs was diminished by at least 60% with all interventions (FIG. 4B). The loss of bradykinin-induced bronchoconstriction also occurred in chronic carotid body denervated, but not sham rats (data not shown).
Brown Norway rats (80-120 g) were sensitized to ovalbumin (1 mg) with pertussis toxin (0.5 ng) and aluminum hydroxide as adjuvant (0.15 g) dissolved in saline (1 ml ip; OVA sensitized), or saline (1 ml ip; Naïve) for three consecutive days (Days 1, 2, and 3) and challenged with aerosolized 5% ovalbumin (OVA, dissolved in 0.9% saline) or saline (Naïve) on days 15, 18 and 21 for 10 min. All anaesthetized experiments conducted on OVA and Naïve rats were conducted ˜7 days (day 28) following the last aerosol exposure. […]
OVA Cohort 1 (n=26): To determine the effect of bradykinin and OVA-sensitization on airway resistance (RL) OVA-sensitization (day 28) and naïve rats were anesthetized with isoflurane (5%, balance O2) and instrumented for surgery. […] Data were analyzed with two-way repeated measures ANOVA (time×group). […] Airway mechanics were measured in response to bradykinin nebulizations (as in Cohort 1). Heart rate was attained from the blood pressure waveform, SaO2 was monitored from a pulse oximeter (Kent Scientific, Torrington Conn.) and blood gases were analyzed from 0.1 ml arterial samples drawn before and after bradykinin with a blood gas analyzer (Element POC, Heska Barrie, ON). […]

[3] = system: carotid body; test: in situ dual-perfused preparation: phrenic and vagal nerve discharge after LPA to the carotid body circulation; set-up: species or system Sprague-Dawley rats; details: carotid bodies intact
[4] = system: naïve Brown Norway rats; test: airway resistance after intravenous bolus in naïve anesthetized ventilated rats (Flexivent); type: in vivo; details: naïve rats with intact CSN; 0.5 ml bolus, 5 μM LPA or 6 μM NaCN
[5] = system: glomus cells; test: Fura 2 calcium imaging of carotid body type I (glomus) cells; type: cell-based, Sprague-Dawley rats; details: LPA 5 μM
Protocol: Sprague-Dawley rats (80-150 g, P21-28) were anaesthetised with isoflurane (3-5% in O2) and carotid bodies were harvested and digested in 0.4 mg ml^−1 collagenase type I (Worthington Biochemical Corporation, Lakewood, N.J.) and 0.2 mg ml^−1 trypsin type I (Sigma-Aldrich, St. Catherines, QC) in DPBS enzyme solution with low CaCl2) (86 μM) and MgCl2 (350 μM), for 20 min at 37° C. followed by dissociation with forceps and incubated for an additional 7 min. The tissue was centrifuged (115 g) for 3 min, supernatant removed and the pellet re-suspended in Ham's F12 (Sigma-Aldrich, St. Catherines, QC) supplemented with 10% heat inactivated fetal bovine serum (Biowest, San Marcos, Tex.). Cells were released by trituration with fire polished silanised Pasteur pipettes (Sigma-Aldrich, St. Catherines, QC). […]
Type I cells were loaded with 5 μM FURA-2AM (Invitrogen, Carlsbad Calif.) in serum free Ham's F12 nutrient media for 30 min at room temperature in humidified 5% CO2, 10% O2, before being transferred to FURA-2AM-free media in the same conditions for 20 min. […] The FURA-2 loaded cells were excited by 50 ms exposures to 340/380 nm light using a Lambda 10-3 filter wheel every 5 s and emitted light was recorded at 510 nm using a Coolsnap HQ2 CCD camera (Photometrics, Tucson Ariz.). […]

[6] = system: asthmatic rats; test: airway resistance after nebulized LPA in asthmatic rats (Cohort 5); type: in vivo, rat; details: nebulized LPA 5 μM

## CC(C)(C)c1ccc(/C=C/C(=O)Nc2ccc3c(c2)OCCO3)cc1 [AMG9810, (2E)-N-(2,3-Dihydro-1,4-benzodioxin-6-yl)-3-[4-(1,1-dimethylethyl)phenyl]-2-propenamide]
[1]
  reduction of 5 μM LPA-mediated carotid sinus nerve excitation: 41±6%
[1]; AMG9810 10 μM added after LPAr blockade (dual block), LPA 5 μM
  LPA response remaining after BrP-LPA or Ki16425 blockade, on subsequent application of AMG9810: blocks the LPA response; also recorded: almost abolished
[2]
  effect on bradykinin-induced increase in RL compared to OVA: abolished the effects of bradykinin

## CCCCCCCCCCCCCCCC(=O)OC[C@@H](O)CC(Br)P(=O)(O)O (stereo partly drawn) [BrP-LPA, [(3S)-1-bromo-4-hexadecanoyloxy-3-hydroxybutyl]phosphonic acid]
[1]
  reduction of 5 μM LPA-mediated carotid sinus nerve excitation: 70±3%
  effect of LPAr blockade on carotid sinus nerve response to LPA (5 μM): diminishes the response to LPA
  en bloc carotid body's response to LPA blocked: Approximately 70%
[2]
  effect on bradykinin-induced increase in RL compared to OVA: abolished the effects of bradykinin

## Cc1noc(-c2ccc(CSCCC(=O)O)cc2)c1NC(=O)OC(C)c1ccccc1Cl (stereo not drawn) [Ki16425, 3-(4-[4-([1-(2-chlorophenyl)ethoxy]carbonylamino)-3-methyl-5-isoxazolyl]benzylsulfanyl) propanoic acid]
[1]
  reduction of 5 μM LPA-mediated carotid sinus nerve excitation: 61±9%
  effect of LPAr blockade on carotid sinus nerve response to LPA (5 μM): diminishes the response to LPA
  en bloc carotid body's response to LPA blocked: Approximately 70%
[2]
  effect on bradykinin-induced increase in RL compared to OVA: abolished the effects of bradykinin

## Oleoyl-Lysophosphatidic acid [LPA]
[3]; LPA 5 μM delivered to the CB circulation, baseline 1±0.5
  phrenic nerve burst amplitude: 2.5±0.5 normalized units
[3]; LPA 5 μM delivered to the CB circulation, baseline 1.2±0.8
  phrenic nerve burst rate: 20.8±2.9 burst·min^−1
[3]; bolus of 5 μM LPA
  phrenic and vagal nerve efferent discharge: increases
[4]
  airway resistance: increased airway resistance
[5]
  intracellular calcium in glomus cells: increased intracellular calcium release
[6]
  immediate effect of nebulized LPA on airway resistance: no immediate effect
[6]; abolished by carotid body denervation
  airway resistance after 30 min of nebulized LPA: increase in airway resistance
